Measured values published in US9446039B2, “Aminoheteroaryl compounds as MTH1 inhibitors” (CEMM—FORSCHUNGSZENTRUM FÜR MOLEKULARE MEDIZIN GMBH, priority 2012, dated 2016).

Legend:
Type in all cases: binding
[1] = target: T1, SW480 colon carcinoma cells lysate proteins (Homo sapiens, UniProt P53618); details: PreyGene COPB1
T1 sequence (P53618 1-953): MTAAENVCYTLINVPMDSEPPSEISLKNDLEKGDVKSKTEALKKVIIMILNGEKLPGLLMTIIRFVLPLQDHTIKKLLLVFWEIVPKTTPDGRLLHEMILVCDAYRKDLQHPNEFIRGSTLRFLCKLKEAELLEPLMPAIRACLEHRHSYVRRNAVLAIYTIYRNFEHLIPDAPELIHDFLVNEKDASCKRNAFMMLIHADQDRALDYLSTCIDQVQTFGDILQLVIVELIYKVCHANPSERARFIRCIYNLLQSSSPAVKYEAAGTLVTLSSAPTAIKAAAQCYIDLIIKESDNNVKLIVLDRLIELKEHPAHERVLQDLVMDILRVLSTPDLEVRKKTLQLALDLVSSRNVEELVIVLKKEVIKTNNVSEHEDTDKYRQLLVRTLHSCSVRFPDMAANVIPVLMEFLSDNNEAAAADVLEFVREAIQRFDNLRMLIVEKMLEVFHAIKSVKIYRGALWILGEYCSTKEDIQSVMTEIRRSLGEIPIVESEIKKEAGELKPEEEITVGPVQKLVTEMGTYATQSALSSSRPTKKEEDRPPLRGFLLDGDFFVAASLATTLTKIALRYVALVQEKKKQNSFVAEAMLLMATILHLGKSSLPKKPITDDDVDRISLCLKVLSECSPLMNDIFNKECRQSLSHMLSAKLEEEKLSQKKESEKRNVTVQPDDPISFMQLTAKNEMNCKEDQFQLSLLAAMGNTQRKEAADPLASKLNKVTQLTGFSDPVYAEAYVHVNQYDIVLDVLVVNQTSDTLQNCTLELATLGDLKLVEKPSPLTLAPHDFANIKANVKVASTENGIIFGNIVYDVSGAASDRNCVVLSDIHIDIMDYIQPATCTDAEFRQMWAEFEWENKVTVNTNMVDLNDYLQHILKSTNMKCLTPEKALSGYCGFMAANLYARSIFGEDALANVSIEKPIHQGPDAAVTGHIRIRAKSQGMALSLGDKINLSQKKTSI

[2] = target: SW480 colon carcinoma cells lysate proteins (Homo sapiens, UniProt P63313); details: PreyGene TMSB10
SW480 colon carcinoma cells lysate proteins (Homo sapiens, UniProt P63313), sequence (P63313 whole entry): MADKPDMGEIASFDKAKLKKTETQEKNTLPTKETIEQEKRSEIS

[3] = target: SW480 colon carcinoma cells lysate proteins (Homo sapiens, UniProt P06753); details: PreyGene TPM3
SW480 colon carcinoma cells lysate proteins (Homo sapiens, UniProt P06753), sequence (P06753 whole entry): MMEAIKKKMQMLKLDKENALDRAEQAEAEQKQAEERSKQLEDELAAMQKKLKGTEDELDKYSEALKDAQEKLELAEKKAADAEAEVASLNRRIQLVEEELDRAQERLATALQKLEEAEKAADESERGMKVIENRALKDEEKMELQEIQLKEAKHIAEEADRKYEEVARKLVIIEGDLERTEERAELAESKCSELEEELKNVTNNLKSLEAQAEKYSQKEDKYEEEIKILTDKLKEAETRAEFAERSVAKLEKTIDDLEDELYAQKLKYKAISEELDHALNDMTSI

[4] = target: T2, SW480 colon carcinoma cells lysate proteins (Homo sapiens, UniProt O43175); details: PreyGene PHGDH
T2 sequence (O43175 1-533): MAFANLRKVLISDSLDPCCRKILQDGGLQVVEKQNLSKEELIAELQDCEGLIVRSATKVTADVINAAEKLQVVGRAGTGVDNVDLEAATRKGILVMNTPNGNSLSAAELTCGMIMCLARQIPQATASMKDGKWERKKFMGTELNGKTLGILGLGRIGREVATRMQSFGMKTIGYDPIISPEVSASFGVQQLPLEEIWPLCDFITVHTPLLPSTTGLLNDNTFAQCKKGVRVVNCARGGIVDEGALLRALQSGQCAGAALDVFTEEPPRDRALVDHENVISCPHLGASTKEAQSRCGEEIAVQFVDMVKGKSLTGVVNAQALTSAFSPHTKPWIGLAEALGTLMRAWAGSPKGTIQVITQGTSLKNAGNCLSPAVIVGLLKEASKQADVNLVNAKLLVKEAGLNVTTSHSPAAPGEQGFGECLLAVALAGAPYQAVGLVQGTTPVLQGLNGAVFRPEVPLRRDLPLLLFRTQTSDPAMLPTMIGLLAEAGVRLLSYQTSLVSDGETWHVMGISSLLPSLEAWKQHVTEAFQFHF

[5] = target: T3, SW480 colon carcinoma cells lysate proteins (Homo sapiens, UniProt Q15102); details: PreyGene PAFAH1B3; SW480 cells
T3 sequence (Q15102 1-231): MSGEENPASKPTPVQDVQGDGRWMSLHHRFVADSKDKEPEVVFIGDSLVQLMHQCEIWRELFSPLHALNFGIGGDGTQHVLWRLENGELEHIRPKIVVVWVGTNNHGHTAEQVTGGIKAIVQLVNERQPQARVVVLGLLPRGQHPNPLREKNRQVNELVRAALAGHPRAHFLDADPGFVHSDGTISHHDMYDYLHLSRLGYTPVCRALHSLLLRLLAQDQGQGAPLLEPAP

[6] = target: T4, SW480 colon carcinoma cells lysate proteins (Homo sapiens, UniProt P02533); details: PreyGene KRT14
T4 sequence (P02533 1-472): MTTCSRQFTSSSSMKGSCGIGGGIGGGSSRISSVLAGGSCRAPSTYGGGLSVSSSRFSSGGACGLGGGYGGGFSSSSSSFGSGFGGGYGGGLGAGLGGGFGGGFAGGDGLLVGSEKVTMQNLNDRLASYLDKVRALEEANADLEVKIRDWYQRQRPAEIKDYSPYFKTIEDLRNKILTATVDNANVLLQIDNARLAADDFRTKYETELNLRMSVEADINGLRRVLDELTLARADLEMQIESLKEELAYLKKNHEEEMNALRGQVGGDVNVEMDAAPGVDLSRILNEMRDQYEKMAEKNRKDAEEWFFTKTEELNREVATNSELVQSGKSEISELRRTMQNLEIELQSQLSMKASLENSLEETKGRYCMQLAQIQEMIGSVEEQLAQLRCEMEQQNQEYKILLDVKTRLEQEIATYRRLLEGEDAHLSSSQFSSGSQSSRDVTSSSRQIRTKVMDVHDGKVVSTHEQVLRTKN

C[C@H](Oc1cc(-c2cnn(C3CCNCC3)c2)cnc1N)c1c(Cl)ccc(F)c1Cl [(5)-crizotinib]
AvgP [1]: 0.2093
SC.Exp. 1-1 [1]: 1
SC.Exp. 1-2 [1]: 3
SC.Exp. 2-1 [1]: 0
SC.Exp. 2-2 [1]: 0
Sum (SC.Exp.) [1]: 4
AvgP [2]: 0.3518
SC.Exp. 1-1 [2]: 2
SC.Exp. 1-2 [2]: 2
SC.Exp. 2-1 [2]: 0
SC.Exp. 2-2 [2]: 0
Sum (SC.Exp.) [2]: 4
AvgP [3]: 0.4204
SC.Exp. 1-1 [3]: 2
SC.Exp. 1-2 [3]: 3
SC.Exp. 2-1 [3]: 0
SC.Exp. 2-2 [3]: 0
Sum (SC.Exp.) [3]: 5
AvgP [4]: 0.4081
SC.Exp. 1-1 [4]: 5
SC.Exp. 1-2 [4]: 7
SC.Exp. 2-1 [4]: 0
SC.Exp. 2-2 [4]: 0
Sum (SC.Exp.) [4]: 12
AvgP [5]: 0
SC.Exp. 1-1 [5]: 1
SC.Exp. 1-2 [5]: 1
SC.Exp. 2-1 [5]: 0
SC.Exp. 2-2 [5]: 0
SC.Exp. Sum [5]: 2
AvgP [6]: 0.4038
SC.Exp. 1-1 [6]: 4
SC.Exp. 1-2 [6]: 2
SC.Exp. 2-1 [6]: 0
SC.Exp. 2-2 [6]: 0
Sum (SC.Exp.) [6]: 6
